How the values were obtained:
S. aureus = test: Time kill method (ASTM E 2315), log reduction of S. aureus; format: cell-based, S. aureus (ATCC 6538); conditions: 0.5% ADBAC Quat
Protocol: (§1) • (a) Determination of Time Kill Activity: The activity of antimicrobial compositions was measured by the time kill method [ASTM E 2315 Standard Guide for Assessment of Antimicrobial Activity Using a Time Kill Procedure], whereby the survival of challenged organisms exposed to an antimicrobial test composition is […] as a function of time. In this test, a diluted aliquot of the composition is brought into contact with a known population of test bacteria for a specified time period at a specified temperature. The test composition is neutralized at the end of the time period, which arrests the antimicrobial activity of the composition. The percent or, alternatively, log reduction from the original bacteria population is calculated. In general, the time kill method is known to those skilled in the art. In addition, comparative data on the foam profile of representative systems is shown. • (b) The composition can be tested at any concentration from 0-100%. The choice of which concentration to use is at the discretion of the investigator, and suitable concentrations are readily determined by those skilled in the art. All testing if performed in triplicate, the results are combined, and the average log reduction is reported. • (c) The choice of contact time period also is at the discretion of the investigator. Any contact time period can be chosen. Typical contact times range from 15 second to 5 minutes, with 30 seconds and 1 minute being typical contact times. The contact temperature also can be any temperature, typically room temperature, or about 25 degrees Celsius. • (d) The microbial suspension, or test inoculum, is prepared by growing a microbial culture on any appropriate solid media (e.g., agar). The microbial population then is washed from the agar with sterile physiological saline and the population of the microbial suspension is adjusted to about 10^8 colony forming units per ml (cfu/ml). • (e) The table below lists the test microbial cultures used in the following tests and includes the name of the bacteria, the ATCC (American Type Culture Collection) identification number, and the abbreviation for the name of the organism used hereafter.
(§2) S. aureus is a Gram positive bacteria, whereas, E. coli is a Gram negative bacteria.
(§3) The log reduction is calculated using the formula: Log reduction=log10(numbers control)−log10(test sample survivors). Foam Height Determination

E. coli = test: Time kill method (ASTM E 2315), log reduction of E. coli; format: cell-based, Escherichia coli (ATCC 112229); conditions: 0.5% ADBAC Quat
Protocol: as §1, §2, §3

[1] = quaternized sugar-derived surfactant 1.25% w/w, 1.95% alkyl dimethyl amine oxide, 30 second exposure
[2] = 1.95% w/w foam boosting agent, 1.25% Poly Trimoniumhydroxypropyl Cocoglucosides Chloride, 30 seconds exposure
[3] = 3.0% w/w foam boosting agent, 1.25% Poly Trimoniumhydroxypropyl Cocoglucosides Chloride, 30 seconds exposure
[4] = 4.2% w/w foam boosting agent, 1.25% Poly Trimoniumhydroxypropyl Cocoglucosides Chloride, 30 seconds exposure

## Cocoglucosides Hydroxypropyl-trimonium Chloride [TM8610]
S. aureus; [1]
  S. aureus Log Reduction: >5.0 log
E. coli; [1]
  E. coli Log Reduction: >5.0 log

## Laurylglucosides Hydroxypropyl-trimonium Chloride [TM1212]
S. aureus; [1]
  S. aureus Log Reduction: >5.0 log
E. coli; [1]
  E. coli Log Reduction: >5.0 log

## Alkyl Dimethyl Amine Oxide
S. aureus; [2]
  S. aureus Log Reduction: >5.5 log
S. aureus; [3]
  S. aureus Log Reduction: >5.5 log
S. aureus; [4]
  S. aureus Log Reduction: >5.5 log
E. coli; [2]
  E. coli Log Reduction: >5.5 log
E. coli; [3]
  E. coli Log Reduction: >5.5 log
E. coli; [4]
  E. coli Log Reduction: >5.5 log

## Lauridimonium-hydroxypropyl Cocoglucosides Chloride [L8610]
S. aureus; [1]
  S. aureus Log Reduction: >5.0 log
E. coli; [1]
  E. coli Log Reduction: >5.0 log

## Lauridimonium-hydroxypropyl Laurylglucosides Chloride [L1210]
S. aureus; [1]
  S. aureus Log Reduction: >5.0 log
E. coli; [1]
  E. coli Log Reduction: >5.0 log

## Stearyldimonium-hydroxypropyl Laurylglucosides Chloride [S1218]
S. aureus; [1]
  S. aureus Log Reduction: >5.0 log
E. coli; [1]
  E. coli Log Reduction: >5.0 log

From patent US9095134B2, “Antimicrobial compositions containing cationic active ingredients and quaternary sugar derived surfactants” (priority 2010, dated 2015)
